Results: patent US6027875A, “Receptor infection assay” (The Salk Institute for Biological Studies, priority 1991, dated 2000)
Like-named read-outs stand apart in the source and are kept apart here.

Legend:
[1] = target: T1, human glucocorticoid receptor (GR) (Homo sapiens, UniProt P04150); settings: 293 cell lysate, 20 µL/200 µL assayed
T1 sequence (P04150 1-777): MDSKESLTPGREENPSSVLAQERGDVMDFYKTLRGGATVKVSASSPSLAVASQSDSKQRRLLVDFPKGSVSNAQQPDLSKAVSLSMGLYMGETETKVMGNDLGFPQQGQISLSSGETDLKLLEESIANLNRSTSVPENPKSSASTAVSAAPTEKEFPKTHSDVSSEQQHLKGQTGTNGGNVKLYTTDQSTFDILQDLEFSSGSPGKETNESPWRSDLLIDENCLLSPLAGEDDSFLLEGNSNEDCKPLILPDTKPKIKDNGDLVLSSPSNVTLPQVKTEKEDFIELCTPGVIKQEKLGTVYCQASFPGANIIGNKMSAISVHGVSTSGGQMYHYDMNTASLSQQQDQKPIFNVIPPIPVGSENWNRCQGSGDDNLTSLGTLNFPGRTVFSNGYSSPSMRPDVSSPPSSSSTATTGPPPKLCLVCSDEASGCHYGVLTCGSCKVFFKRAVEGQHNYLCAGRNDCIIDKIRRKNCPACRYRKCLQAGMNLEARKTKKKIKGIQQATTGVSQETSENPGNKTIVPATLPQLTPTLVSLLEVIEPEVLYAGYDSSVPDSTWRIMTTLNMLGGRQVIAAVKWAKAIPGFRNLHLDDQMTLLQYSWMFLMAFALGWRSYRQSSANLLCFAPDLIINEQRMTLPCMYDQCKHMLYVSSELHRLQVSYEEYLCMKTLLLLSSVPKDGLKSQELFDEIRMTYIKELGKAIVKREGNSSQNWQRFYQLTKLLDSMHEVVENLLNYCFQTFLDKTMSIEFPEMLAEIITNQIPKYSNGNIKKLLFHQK
Procedure: The coinfection assay was carried out in the following manner. Twelve well dishes were seeded with 293 cells at a density of 1.2×10^5 cells per well and grown in Dulbecco's modified Eagle's medium (DME) supplemented with 10% fetal calf serum. Assuming that the hGR4, MLUC3, and dl 309 virus stocks were 10^8 PFU/ml, the next day cells were infected with various combinations of these stocks in triplicate at a multiplicity of infection corresponding to 50. Dexamethasone dissolved in 50% ethanol or the control vehicle alone were each diluted into DME supplemented with 10% charcoal-adsorbed fetal calf serum at a final concentration of 0.1 μM. These mixtures were added to cells adsorbed with virus for thirty minutes. Cells were harvested at 18, 22 and 89 hours after infection by scraping them from the plate and washing the cell pellets in phosphate-buffered saline, and resuspending them in 100 microliters of 100 mM K2 HPO4 (pH 7.8), 1 mM dithiothreitol). Cell lysates were prepared by three cycles of sequential freezing and thawing in a dry ice/ethanol and 37° C. baths. Cell debris was pelleted by centrifugation in a microcentrifuge for 5 minutes at 4° C. […] Luciferase enzyme activity was assayed by automatic injection of 1 mM d-luciferin (Analytical Luminescence Laboratories) as described in de Wet et al. Mol. Cell. Biol. 7, 725 (1987) using a Berthold luminometer.
The orientation is reversed relative to the major late promoter with the RSV long term repeat promoter driving the expression of the human glucocorticoid receptor DNA terminating with SV40 polyadenylation sequence. This orientation removes the tripartite leader from functioning in its usual manner. A separate vector for the receptor DNA is constructed similarly. The two vectors are separately used to infect 293 cells. First, 293 cells are infected with the vector bearing the human glucocorticoid receptor DNA. Successful infection can be tested by picking plaques and doing a Western analysis with human glucocorticoid receptor antibodies or one can measure the ligand binding properties of the extracts or one can do a restriction map analysis to assure proper infection with the human glucocoid receptor adenovirus DNA. Successfully infected cells are then infected with the reporter virus vector. Alternatively, both vectors could be mixed on, for example, 293 cells. Where host cells not bearing a complement of the adenovirus genome are used, one may coinfect with wild-type virus in order to supply the missing complement. […] The material to be tested may either be added in at the beginning or at such twenty-two hour period. The cells are then tested for measurement of the reporter activity. In the case of the exemplified luciferase gene, that measurement takes the form of quantitating light emission from luciferin oxidized by any luciferase present.

[2] = target: T1, human glucocorticoid receptor (GR); test: Functional assay with recombinant receptor (hGR4) and reporter (MLUC3) viruses in 293 cells, luciferase activity; settings: 10^-7 M dex, 293 cells, 22 hours after infection, 0.1 µM
Source text: A reporter virus (MLUC3; also variously referred to as Ad3MLUC, MpCV3MTV-LUC-Ad and ADMLUC) was constructed containing the mouse mammary tumor virus LTR linked to the firefly luciferase cDNA with an SV40 polyadenylation signal (Hollenberg, et al., Cell 55, 899 (1988)) similar to the receptor virus hGR4 above. The two viruses, hGR4 and MLUC3, were coinfected into 293 cells growing in DMEM suplemented with 10% charcoal adsorbed fetal calf serum ±10^-7 M dexamethasone (dex), and cellular extracts were prepared by Triton X-100™ brand non-ionic surfactant lysis at 22 hours after infection. (Williams, et al., Anal. Biochem 176, 28 (1989)) These were tested for luciferase activity by incubating with ATP and luciferin in a suitable buffer system. (de Wet, et al., Mol. Cell Biol. 7, 725 (1987)). Light liberated in this reaction was measured using a luminometer.

Compound: C[C@@H]1C[C@H]2[C@@H]3CCC4=CC(=O)C=C[C@]4(C)[C@@]3(F)[C@@H](O)C[C@]2(C)[C@@]1(O)C(=O)CO [DEX, Dexamethasone]
- Response of cell lysate (luciferase activity), with CV ([1]; co-infection HGR + DL309, 18 HRS after co-infection, DEX 3 × 10^-9): 35 (28%)
- Response of cell lysate (luciferase activity), with CV ([1]; co-infection HGR + DL309, 18 HRS after co-infection, DEX 10^-7 M): 33
- Response of cell lysate (luciferase activity), with CV ([1]; co-infection HGR + DL309, 22 HRS after co-infection, DEX 3 × 10^-9): 40 (19%)
- Response of cell lysate (luciferase activity), with CV ([1]; co-infection HGR + DL309, 22 HRS after co-infection, DEX 10^-7 M): 42 (38%)
- Response of cell lysate (luciferase activity), with CV ([1]; co-infection HGR + DL309, 89 HR after co-infection, DEX 3 × 10^-9): 22 (14%)
- Response of cell lysate (luciferase activity), with CV ([1]; co-infection HGR + DL309, 89 HR after co-infection, DEX 10^-7 M): 27 (4%)
- Response of cell lysate (luciferase activity), with CV ([1]; co-infection HGR + MTV-LUC, 18 HRS after co-infection, DEX 3 × 10^-9): 30015
- Response of cell lysate (luciferase activity), with CV ([1]; co-infection HGR + MTV-LUC, 18 HRS after co-infection, DEX 10^-7 M): 72864
- Response of cell lysate (luciferase activity), with CV ([1]; co-infection HGR + MTV-LUC, 22 HRS after co-infection, DEX 3 × 10^-9): 48858 (14%)
- Response of cell lysate (luciferase activity), with CV ([1]; co-infection HGR + MTV-LUC, 22 HRS after co-infection, DEX 10^-7 M): 90718 (18%)
- Response of cell lysate (luciferase activity), with CV ([1]; co-infection HGR + MTV-LUC, 89 HR after co-infection, DEX 3 × 10^-9): 1246 (68%)
- Response of cell lysate (luciferase activity), with CV ([1]; co-infection HGR + MTV-LUC, 89 HR after co-infection, DEX 10^-7 M): 1065 (7%)
- Response of cell lysate (luciferase activity), with CV ([1]; co-infection MTV-LUC + DL309, 18 HRS after co-infection, DEX 3 × 10^-9): 3643 (20%)
- Response of cell lysate (luciferase activity), with CV ([1]; co-infection MTV-LUC + DL309, 18 HRS after co-infection, DEX 10^-7 M): 19130
- Response of cell lysate (luciferase activity), with CV ([1]; co-infection MTV-LUC + DL309, 22 HRS after co-infection, DEX 3 × 10^-9): 5095 (12%)
- Response of cell lysate (luciferase activity), with CV ([1]; co-infection MTV-LUC + DL309, 22 HRS after co-infection, DEX 10^-7 M): 24215 (4%)
- Response of cell lysate (luciferase activity), with CV ([1]; co-infection MTV-LUC + DL309, 89 HR after co-infection, DEX 3 × 10^-9): 53 (48%)
- Response of cell lysate (luciferase activity), with CV ([1]; co-infection MTV-LUC + DL309, 89 HR after co-infection, DEX 10^-7 M): 151 (23%)
- Response of cell lysate (luciferase activity), with CV ([1]; infection DL309 only, 18 HRS after co-infection, DEX 3 × 10^-9): 28 (5%)
- Response of cell lysate (luciferase activity), with CV ([1]; infection DL309 only, 18 HRS after co-infection, DEX 10^-7 M): 32
- Response of cell lysate (luciferase activity), with CV ([1]; infection DL309 only, 22 HRS after co-infection, DEX 3 × 10^-9): 42 (22%)
- Response of cell lysate (luciferase activity), with CV ([1]; infection DL309 only, 22 HRS after co-infection, DEX 10^-7 M): 43 (11%)
- Response of cell lysate (luciferase activity), with CV ([1]; infection DL309 only, 89 HR after co-infection, DEX 3 × 10^-9): 22 (24%)
- Response of cell lysate (luciferase activity), with CV ([1]; infection DL309 only, 89 HR after co-infection, DEX 10^-7 M): 23 (7%)
- Additional enhancement of the luciferase response by coinfection with hGR4 ([2]; MLUC3 + hGR4 (not with parental dl 309)): 5 fold
- Stimulation of luciferase activity ([2]; MLUC3 alone): 10 fold
